Data set [1] is described as follows: relative permittivity at zero frequency (dimensionless). Particulars: 100 kPa, Liquid, Dielectrometer.
Data set [2] is described as follows: relative permittivity at zero frequency (dimensionless); xn = mol fraction of the nth substance listed. The following applies: 100 kPa, Liquid, Dielectrometer.

Numbers after ± are expanded uncertainties.

Take `CC(C)CO` [2-methyl-1-propanol]: the “relative permittivity at zero frequency” value in data set [1] (288.15 K) was determined as 19.51 ± 0.06; in data set [1] (293.15 K) it was 18.71 ± 0.06; in data set [1] (298.15 K), 17.96 ± 0.06; in data set [1] (303.15 K), 17.23 ± 0.06; in data set [1] (308.15 K), 16.53 ± 0.06.
On the same counts, the results for `CC(C)(C)O` [2-methylpropan-2-ol] are 14.49 ± 0.06, 13.38 ± 0.06, 12.49 ± 0.06, 11.34 ± 0.06 and 10.4 ± 0.06.
With `CC(C)(C)O` [2-methylpropan-2-ol] + CC(C)CO, the “relative permittivity at zero frequency” value in data set [2] (288.15 K, x1 = 1) amounted to 14.49 ± 0.06; in data set [2] (293.15 K, x1 = 1), 13.38 ± 0.06; in data set [2] (298.15 K, x1 = 1), 12.49 ± 0.06; in data set [2] (303.15 K, x1 = 1), 11.34 ± 0.06; in data set [2] (308.15 K, x1 = 1), 10.4 ± 0.06.
Consider `CCCCO` [butan-1-ol], for which the “relative permittivity at zero frequency” value in data set [1] (288.15 K) turned out to be 19.01 ± 0.06; in data set [1] (293.15 K), 18.28 ± 0.06; in data set [1] (298.15 K), 17.58 ± 0.06; in data set [1] (303.15 K), 16.91 ± 0.06; in data set [1] (308.15 K), 16.26 ± 0.06.
As to `CCCCO` [butan-1-ol] + CC(C)(C)O, the “relative permittivity at zero frequency” value in data set [2] (288.15 K, x2 = 0) worked out at 19.01 ± 0.06; in data set [2] (293.15 K, x2 = 0), 18.28 ± 0.06; in data set [2] (298.15 K, x2 = 0), 17.58 ± 0.06; in data set [2] (303.15 K, x2 = 0) it was 16.91 ± 0.06; in data set [2] (308.15 K, x2 = 0), 16.26 ± 0.06.
In the case of `CCCCO` [butan-1-ol] + CC(C)CO, the “relative permittivity at zero frequency” value in data set [2] (288.15 K, x2 = 0) is recorded as 19.01 ± 0.06; in data set [2] (293.15 K, x2 = 0) it was 18.28 ± 0.06; in data set [2] (298.15 K, x2 = 0), 17.58 ± 0.06; in data set [2] (303.15 K, x2 = 0), 16.91 ± 0.06; in data set [2] (308.15 K, x2 = 0), 16.26 ± 0.06.
For `CCCCO` [butan-1-ol] + CCC(C)O, the “relative permittivity at zero frequency” value in data set [2] (288.15 K, x2 = 0) is on record as 19.01 ± 0.06; in data set [2] (293.15 K, x2 = 0), 18.28 ± 0.06; in data set [2] (298.15 K, x2 = 0) it was 17.58 ± 0.06; in data set [2] (303.15 K, x2 = 0), 16.91 ± 0.06; in data set [2] (308.15 K, x2 = 0), 16.26 ± 0.06.
Consider `CCC(C)O` (stereo not given) [butan-2-ol], for which the “relative permittivity at zero frequency” value in data set [1] (288.15 K) came out at 18.47 ± 0.06; in data set [1] (293.15 K), 17.51 ± 0.06; in data set [1] (298.15 K), 16.6 ± 0.06; in data set [1] (303.15 K), 15.75 ± 0.06; in data set [1] (308.15 K), 14.94 ± 0.06.
In the case of `CCC(C)O` (stereo not given) [butan-2-ol] + CC(C)(C)O, the “relative permittivity at zero frequency” value in data set [2] (288.15 K, x2 = 0) is 18.47 ± 0.06; in data set [2] (293.15 K, x2 = 0) it was 17.51 ± 0.06; in data set [2] (298.15 K, x2 = 0), 16.6 ± 0.06; in data set [2] (303.15 K, x2 = 0), 15.75 ± 0.06; in data set [2] (308.15 K, x2 = 0), 14.94 ± 0.06.
On to `CCC(C)O` (stereo not given) [butan-2-ol] + CC(C)CO, for which the “relative permittivity at zero frequency” value in data set [2] (288.15 K, x1 = 1) is recorded as 18.47 ± 0.06; in data set [2] (293.15 K, x1 = 1), 17.51 ± 0.06; in data set [2] (298.15 K, x1 = 1), 16.6 ± 0.06; in data set [2] (303.15 K, x1 = 1) it was 15.75 ± 0.06; in data set [2] (308.15 K, x1 = 1) it was 14.94 ± 0.06.

The values are drawn from the NIST ThermoML archive (doi:10.1021/je3007666).
